From the supplement of paper PMC10627819

How the values were obtained:
[1] = test system: S. aureus Newman; assay: fitness (endpoint OD595 vs no drug) (fraction); higher = more growth
Procedure, shortened: (§1)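 Fitness is computed from the optical density at which cultures reach stationary phase, divided by the robust mean of no-drug control wells. Any value above 1 is set to 1. Cultures started at OD595 0.01 in 384-well plates with TSB, LB Lennox or CY at 37 °C, and OD595 was read every 30 min for 14 h against a first-reading background.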

[2] = test system: S. pneumoniae D39V; assay: as above
Procedure, shortened: as §1

[3] = test system: S. aureus DSM 20231; assay: as above
Procedure, shortened: as §1

[4] = test system: S. aureus DSM 20231; assay: Bliss interaction score (quartile over a dose matrix) (fitness difference); higher = more antagonism (negative = synergy)
Procedure, shortened: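 The Bliss score subtracts expected fitness, the product of the single-drug fitness values, from observed fitness. Fitness is plate-normalised OD595 at entry into stationary phase, relative to the robust no-drug mean and capped at 1, with single-drug fitness inferred from combinations. Summaries are quartiles over technical, biological and donor/recipient replicates.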
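Throughout, for Bliss interaction score (quartile over a dose matrix): first quartile when negative (synergy) and third quartile when positive (antagonism).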

CO[C@@]12[C@H](COC(N)=O)C3=C(C(=O)C(C)=C(N)C3=O)N1C[C@@H]1N[C@@H]12 [Mitomycin C] + C[n+]1ccc(-c2cc[n+](C)cc2)cc1 [Paraquat]
fitness
Conditions | first compound 0.001075 µg/mL | first compound 0.00215 µg/mL | first compound 0.0043 µg/mL | first compound 0.0156 µg/mL | first compound 0.0312 µg/mL | first compound 0.0625 µg/mL
[1], partner 1.25 µg/mL | – | – | – | 0.666 | 0.675 | 0.527
[1], partner 2.5 µg/mL | – | – | – | 0.675 | 0.651 | 0.527
[1], partner 5 µg/mL | – | – | – | 0.696 | 0.676 | 0.467
[2], partner 1.5 µg/mL | 0.955 | 0.94 | 0.862 | – | – | –
[2], partner 3 µg/mL | 0.954 | 0.911 | 0.842 | – | – | –
[2], partner 6 µg/mL | 0.961 | 0.919 | 0.783 | – | – | –
[3], partner 1.25 µg/mL | – | – | – | 0.717 | 0.684 | 0.563
[3], partner 2.5 µg/mL | – | – | – | 0.691 | 0.678 | 0.577
[3], partner 5 µg/mL | – | – | – | 0.668 | 0.67 | 0.557

fitness, [2], one replicate
Conditions | first compound 0.002 µg/mL | first compound 0.004 µg/mL | first compound 0.008 µg/mL
partner 1.5 µg/mL | 0.852 | 0.77 | 0.553
partner 3 µg/mL | 0.862 | 0.781 | 0.592
partner 6 µg/mL | 0.867 | 0.778 | 0.558

CO[C@@]12[C@H](COC(N)=O)C3=C(C(=O)C(C)=C(N)C3=O)N1C[C@@H]1N[C@@H]12 [Mitomycin C] + Cc1cc(NS(=O)(=O)c2ccc(N)cc2)no1 [Sulfamethoxazol]
fitness
Conditions | first compound 0.001075 µg/mL | first compound 0.00215 µg/mL | first compound 0.0043 µg/mL | first compound 0.0156 µg/mL | first compound 0.0312 µg/mL | first compound 0.0625 µg/mL
[1], partner 1 µg/mL | – | – | – | 0.779 | 0.66 | 0.546
[1], partner 2 µg/mL | – | – | – | 0.777 | 0.698 | 0.559
[1], partner 4 µg/mL | – | – | – | 0.73 | 0.622 | 0.516
[2], partner 1 µg/mL | 0.886 | 0.851 | 0.773 | – | – | –
[2], partner 2 µg/mL | 0.894 | 0.873 | 0.779 | – | – | –
[2], partner 4 µg/mL | 0.921 | 0.913 | 0.787 | – | – | –
[3], partner 1 µg/mL | – | – | – | 0.703 | 0.664 | 0.534
[3], partner 2 µg/mL | – | – | – | 0.686 | 0.689 | 0.558
[3], partner 4 µg/mL | – | – | – | 0.721 | 0.684 | 0.547

fitness, one replicate
Conditions | first compound 0.002 µg/mL | first compound 0.004 µg/mL | first compound 0.008 µg/mL | first compound 0.0156 µg/mL | first compound 0.0312 µg/mL | first compound 0.0625 µg/mL
[1], partner 8 µg/mL | – | – | – | 0.993 | 0.823 | 0.658
[2], partner 1 µg/mL | 0.81 | 0.724 | 0.496 | – | – | –
[2], partner 2 µg/mL | 0.727 | 0.686 | 0.459 | – | – | –
[2], partner 4 µg/mL | 0.739 | 0.7 | 0.513 | – | – | –

CO[C@@]12[C@H](COC(N)=O)C3=C(C(=O)C(C)=C(N)C3=O)N1C[C@@H]1N[C@@H]12 [Mitomycin C] + Cc1ncc([N+](=O)[O-])n1CCO [Metronidazole]
Conditions | fitness
[1], first compound 0.0156 µg/mL, partner 0.625 µg/mL | 0.75
[1], first compound 0.0156 µg/mL, partner 1.25 µg/mL | 0.766
[1], first compound 0.0156 µg/mL, partner 2.5 µg/mL | 0.709
[1], first compound 0.0312 µg/mL, partner 0.625 µg/mL | 0.649
[1], first compound 0.0312 µg/mL, partner 1.25 µg/mL | 0.698
[1], first compound 0.0312 µg/mL, partner 2.5 µg/mL | 0.569
[1], first compound 0.0625 µg/mL, partner 0.625 µg/mL | 0.524
[1], first compound 0.0625 µg/mL, partner 1.25 µg/mL | 0.517
[1], first compound 0.0625 µg/mL, partner 2.5 µg/mL | 0.369
[2], first compound 0.001075 µg/mL, partner 1.25 µg/mL | 0.972
[2], first compound 0.001075 µg/mL, partner 2.5 µg/mL | 0.974
[2], first compound 0.001075 µg/mL, partner 5 µg/mL | 0.93
[2], first compound 0.002 µg/mL, partner 1.073 µg/mL | 0.853
[2], first compound 0.002 µg/mL, partner 2.145 µg/mL | 0.812
[2], first compound 0.002 µg/mL, partner 4.29 µg/mL | 0.791
[2], first compound 0.00215 µg/mL, partner 1.25 µg/mL | 0.971
[2], first compound 0.00215 µg/mL, partner 2.5 µg/mL | 0.984
[2], first compound 0.00215 µg/mL, partner 5 µg/mL | 0.933
[2], first compound 0.004 µg/mL, partner 1.073 µg/mL | 0.802
[2], first compound 0.004 µg/mL, partner 2.145 µg/mL | 0.806
[2], first compound 0.004 µg/mL, partner 4.29 µg/mL | 0.742
[2], first compound 0.0043 µg/mL, partner 1.25 µg/mL | 0.857
[2], first compound 0.0043 µg/mL, partner 2.5 µg/mL | 0.852
[2], first compound 0.0043 µg/mL, partner 5 µg/mL | 0.836
[2], first compound 0.008 µg/mL, partner 1.073 µg/mL | 0.72
[2], first compound 0.008 µg/mL, partner 4.29 µg/mL | 0.735
[3], first compound 0.0156 µg/mL, partner 0.625 µg/mL | 0.775
[3], first compound 0.0156 µg/mL, partner 1.25 µg/mL | 0.873
[3], first compound 0.0156 µg/mL, partner 2.5 µg/mL | 0.799
[3], first compound 0.0312 µg/mL, partner 0.625 µg/mL | 0.756
[3], first compound 0.0312 µg/mL, partner 1.25 µg/mL | 0.782
[3], first compound 0.0312 µg/mL, partner 2.5 µg/mL | 0.779
[3], first compound 0.0625 µg/mL, partner 0.625 µg/mL | 0.593
[3], first compound 0.0625 µg/mL, partner 1.25 µg/mL | 0.606
[3], first compound 0.0625 µg/mL, partner 2.5 µg/mL | 0.643

fitness, [1], one replicate
Conditions | first compound 0.0156 µg/mL | first compound 0.0312 µg/mL | first compound 0.0625 µg/mL
partner 0.781 µg/mL | 0.737 | 0.703 | 0.581
partner 1.562 µg/mL | 0.731 | 0.689 | 0.625
partner 3.124 µg/mL | 0.704 | 0.747 | 0.584

CO[C@@]12[C@H](COC(N)=O)C3=C(C(=O)C(C)=C(N)C3=O)N1C[C@@H]1N[C@@H]12 [Mitomycin C] + Cc1onc(-c2ccccc2)c1C(=O)N[C@@H]1C(=O)N2[C@@H]1SC(C)(C)[C@@H]2C(=O)O [Oxacillin]
Conditions | fitness
[1], first compound 0.0156 µg/mL, partner 0.0156 µg/mL | 0.672
[1], first compound 0.0156 µg/mL, partner 0.0312 µg/mL | 0.616
[1], first compound 0.0156 µg/mL, partner 0.0625 µg/mL | 0.485
[1], first compound 0.0312 µg/mL, partner 0.0156 µg/mL | 0.571
[1], first compound 0.0312 µg/mL, partner 0.0312 µg/mL | 0.534
[1], first compound 0.0312 µg/mL, partner 0.0625 µg/mL | 0.423
[1], first compound 0.0625 µg/mL, partner 0.0156 µg/mL | 0.421
[1], first compound 0.0625 µg/mL, partner 0.0312 µg/mL | 0.307
[1], first compound 0.0625 µg/mL, partner 0.0625 µg/mL | 0.111
[2], first compound 0.001075 µg/mL, partner 0.01 µg/mL | 0.973
[2], first compound 0.001075 µg/mL, partner 0.02 µg/mL | 0.957
[2], first compound 0.002 µg/mL, partner 0.01 µg/mL | 0.838
[2], first compound 0.002 µg/mL, partner 0.02 µg/mL | 0.764
[2], first compound 0.002 µg/mL, partner 0.04 µg/mL | 0.219
[2], first compound 0.00215 µg/mL, partner 0.01 µg/mL | 0.974
[2], first compound 0.00215 µg/mL, partner 0.02 µg/mL | 0.968
[2], first compound 0.00215 µg/mL, partner 0.04 µg/mL | 0.605
[2], first compound 0.004 µg/mL, partner 0.01 µg/mL | 0.813
[2], first compound 0.004 µg/mL, partner 0.02 µg/mL | 0.735
[2], first compound 0.004 µg/mL, partner 0.04 µg/mL | 0.227
[2], first compound 0.0043 µg/mL, partner 0.01 µg/mL | 0.891
[2], first compound 0.0043 µg/mL, partner 0.02 µg/mL | 0.822
[2], first compound 0.008 µg/mL, partner 0.01 µg/mL | 0.664
[2], first compound 0.008 µg/mL, partner 0.02 µg/mL | 0.636
[2], first compound 0.008 µg/mL, partner 0.04 µg/mL | 0.241
[3], first compound 0.0156 µg/mL, partner 0.0156 µg/mL | 0.586
[3], first compound 0.0156 µg/mL, partner 0.0312 µg/mL | 0.458
[3], first compound 0.0156 µg/mL, partner 0.0625 µg/mL | 0.389
[3], first compound 0.0312 µg/mL, partner 0.0156 µg/mL | 0.581
[3], first compound 0.0312 µg/mL, partner 0.0312 µg/mL | 0.499
[3], first compound 0.0312 µg/mL, partner 0.0625 µg/mL | 0.432
[3], first compound 0.0625 µg/mL, partner 0.0156 µg/mL | 0.544
[3], first compound 0.0625 µg/mL, partner 0.0312 µg/mL | 0.474
[3], first compound 0.0625 µg/mL, partner 0.0625 µg/mL | 0.348

CO[C@@]12[C@H](COC(N)=O)C3=C(C(=O)C(C)=C(N)C3=O)N1C[C@@H]1N[C@@H]12 [Mitomycin C] + Cn1nnc(-c2ccc(-c3ccc(N4C[C@H](CO)OC4=O)cc3F)cn2)n1 [Tedizolid]
fitness
Conditions | partner 0.03125 µg/mL | partner 0.0625 µg/mL | partner 0.125 µg/mL | partner 0.25 µg/mL | partner 0.5 µg/mL
[1], first compound 0.0156 µg/mL | – | 0.653 | 0.612 | 0.177 | –
[1], first compound 0.0312 µg/mL | – | 0.61 | 0.587 | 0.084 | –
[1], first compound 0.0625 µg/mL | – | 0.519 | 0.379 | 0.0559 | –
[2], first compound 0.001075 µg/mL | – | – | 0.76 | 0.688 | 0.313
[2], first compound 0.002 µg/mL | 0.825 | 0.821 | 0.749 | – | –
[2], first compound 0.00215 µg/mL | – | – | 0.774 | 0.687 | 0.273
[2], first compound 0.004 µg/mL | 0.745 | 0.725 | 0.686 | – | –
[2], first compound 0.0043 µg/mL | – | – | 0.687 | 0.617 | 0.21
[2], first compound 0.008 µg/mL | 0.635 | 0.611 | 0.518 | – | –
[3], first compound 0.0156 µg/mL | – | 0.701 | 0.652 | 0.281 | –
[3], first compound 0.0312 µg/mL | – | 0.692 | 0.597 | 0.225 | –
[3], first compound 0.0625 µg/mL | – | 0.511 | 0.47 | 0.2 | –

CO[C@@]12[C@H](COC(N)=O)C3=C(C(=O)C(C)=C(N)C3=O)N1C[C@@H]1N[C@@H]12 [MitomycinC] + CCCSc1nc(N[C@@H]2C[C@H]2c2ccc(F)c(F)c2)c2nnn([C@@H]3C[C@H](OCCO)[C@@H](O)[C@H]3O)c2n1 [Ticagrelor]
Conditions | Bliss interaction score
[4] | -0.392

CO[C@@]12[C@H](COC(N)=O)C3=C(C(=O)C(C)=C(N)C3=O)N1C[C@@H]1N[C@@H]12 [MitomycinC] + CCCc1nc2c(C)cc(-c3nc4ccccc4n3C)cc2n1Cc1ccc(-c2ccccc2C(=O)O)cc1 [Telmisartan]
Conditions | Bliss interaction score
[4] | -0.162

CO[C@@]12[C@H](COC(N)=O)C3=C(C(=O)C(C)=C(N)C3=O)N1C[C@@H]1N[C@@H]12 [MitomycinC] + COc1ccc2[nH]c([S+]([O-])Cc3ncc(C)c(OC)c3C)nc2c1 [Omeprazole]
Conditions | Bliss interaction score
[4] | 0.169
